The target of data set [1] is T1, Kv1.3 (Homo sapiens, UniProt P22001).
T1 construct: expressed in transfected cells
The experiment in a line: Patch clamp assay (QPatch), Kv1.3. The class given is cell-based. The conditions noted are these: CHO cells stably expressing human Kv1.3, read-out: Potency IC50, Kv1.3.
Protocol: (§1) Selectivity of Kv1.3 inhibitor peptides for Kv1.3 over other potassium ion channels (Kv1.1, Kv1.2 and Kv1.6) was determined using patch clamp assay.
(§2) Chinese Hamster Ovary (CHO) cell lines stably expressing exogenous human α-subunits of each potassium ion channel were grown and passaged under standard culture conditions.
(§3) The automated, chip-based planar patch clamp device QPatch® was used to quantitate the ionic currents. All recordings were made in the conventional whole-cell configuration after establishment of gigaohm seals. […] During experiments 0.1% (v/v) BSA was included as a vehicle in all external recording solutions. Currents were elicited from a holding potential of −80 mV using a voltage protocol, which shifted the voltage to 30 mV for 500 ms every 15 s.
(§4) Concentration-response relationships were established by cumulatively applying seven escalating concentrations of test sample to an individual cell with a recording period of 2 min per compound application.
(§5) The efficacy was determined as the mean charge for the last three sweeps at the end of each concentration application period from the cursor positions. The percent inhibition for each test dose application period was calculated as the reduction in mean cursor value (charge) relative to the cursor value measured at the end of the vehicle period and used to calculate the IC50 from the concentration response curve.

Data set [2] in a line: Example 6: Pharmacokinetic characterisation after s.c. administration. It is filed as in vivo, rat (Sprague Dawley or Wistar). The conditions noted are these: rat, 70 nmol/kg. As to the method:
Sprague Dawley or Wistar rats (males with a body weight of approximately 250-350 g) were given a single subcutaneous (s.c.) injection of each peptide to be tested.
Following s.c. administration of the selected peptides (dose 70 nmol/kg, dosing volume either 2 or 5 mL/kg), blood samples were drawn at 15 min, 30 min, 45 min, 60 min, 90 min, 2 h, 3 h, 4 h post-dose. At each sampling time point, samples from the rats were drawn by sublingual bleeding or by tail cut. After last sampling the rats were sacrificed by O2/CO2 anaesthesia. The dosing vehicle was 10 mM phosphate, 0.8% NaCl, 0.05% Polysorbate 20 (pH 6.0).
Plasma samples were analyzed after solid phase extraction (SPE) by liquid chromatography mass spectrometry (LC-MS/MS). Mean plasma concentrations were used for calculation of the pharmacokinetic parameters using the non-compartmental approach in Phoenix WinNonlin 6.4 or a later version. […]. AUCinf is the area under the plasma concentration−time curve extrapolated to infinity (AUCinf=AUClast+Clast/λz, where Clast is the last observed plasma concentration). Cmax is the maximum observed concentration, occurring at Tmax.

Data set [3] concerns the target T2, Kv1.6 (Homo sapiens, UniProt P17658).
T2 construct: expressed in transfected cells
The experiment in a line: Patch clamp assay (QPatch), Kv1.6. It is filed as cell-based. The conditions noted are these: for IC50: QPatch, CHO cells stably expressing human Kv1.6, read-out: Potency IC50, Kv1.6; for Selectivity Kv1.6/Kv1.3: ratio of IC50 Kv1.6/Kv1.3.

Data set [4] relates to T-cell activation in human whole blood. Put plainly: Example 5: IFN-g, IL-2 and IL-17A release in thapsigargin stimulated human whole blood. It is filed as cell-based. The settings on record: 24 Hr, at least 2 replicate experiments. From the text:
Human whole blood was used to assess the potency of Kv1.3 inhibitor peptides on T-cell activation as determined by release of the cytokines IFN-g, IL-2 and IL-17A after stimulation with thapsigargin. Addition of thapsigargin activates a signalling cascade resulting in T cell proliferation and cytokine production, in which the Kv1.3 ion channel plays a key role. Activity of Kv1.3 inhibitors in human primary T cells can thus be measured in this experimental system.
Human whole blood was obtained from healthy blood donors and was collected after informed consent using Sodium Heparin blood sampling tubes (Becton, Dickinson and Company (BD), Cat #367876). Test peptides were diluted to 4× final testing concentrations in assay buffer (Dulbecco's Modified Eagle's medium (DMEM) with high glucose and GlutaMAX (3.97 mM L-alanine-L-glutamine) (Gibco Cat #61965026) supplemented with 25 mM HEPES buffer, 1 mM Sodium Pyruvate, 100 units/ml Penicillin, 100 μg/ml Streptomycin and 0.05% Casein from bovine milk (Sigma-Aldrich Cat #C4765)) and 25 μl was added to wells of a 96 well tissue culture plate. Then 50 μl human whole blood was added and incubated for minimum 5 minutes at room temperature to allow compound binding. Then 25 μl of 40 μM thapsigargin diluted in assay buffer was added to all wells of the assay plates to activate the cells, followed by incubation for 24 Hr at 37° C./5% CO2 in a humidified box. The assay plates were centrifuged for 10 min at 300 g at 4° C. and the supernatants were transferred to new plates. The concentrations of IFN-g, IL-2 and IL-17A released to the supernatants were measured using a tri-plex human cytokine detection kit (MSD Human U-Plex IFN-g, IL-2 and IL-17A kit; Meso Scale Discovery Cat #K15067L-2) and all three cytokines were measured using a MSD MESO QuickPlex SQ 120 instrument as described by the manufacturer (Meso Scale Discovery, Rockville, Maryland, USA).
To determine the potency of inhibition for the compounds, the cytokine concentration data were fitted using a three parameter logistic dose response model based on the formula Y=Bottom+(Top−Bottom)/(1+IC50/X), where Y is measured cytokine concentrations, X is compound concentrations and Top, bottom and IC50 are parameters fitted using the software Graphpad Prism version 5.04. The IC50 value calculated from the concentration response curve represents the compound concentration that gives an inhibition response halfway between the basal (Bottom) response and the maximal (Top) response.
All values are derived from at least 2 replicate experiments. All of the tested Kv1.3 blockers were able to inhibit cytokine production from human T cells present in human whole blood that was stimulated with thapsigargin.

Data set [5] concerns T-cell activation in rat whole blood. Put plainly: Example 4: IL-17A release in thapsigargin stimulated rat whole blood. It is filed as cell-based, rat (Lewis or Sprague-Dawley). The conditions noted are these: 24 Hr, at least 2 replicates, unit inferred, read-out: IC50 (inhibition of IL-17A release). A digest of the protocol:
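Heparinised whole blood from naïve Lewis or Sprague-Dawley rats preincubated ≥5 min at RT with peptide, then stimulated with thapsigargin (40 μM stock added as one quarter of well volume) for 24 h at 37 °C. Supernatant IL-17A measured by ELISA; IC50 from curves normalised to stimulated and unstimulated controls, ≥2 replicates.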

Data set [6] deals with T3, Kv1.2 (Homo sapiens, UniProt P16389).
T3 construct: expressed in transfected cells
T3 sequence (P16389 whole entry): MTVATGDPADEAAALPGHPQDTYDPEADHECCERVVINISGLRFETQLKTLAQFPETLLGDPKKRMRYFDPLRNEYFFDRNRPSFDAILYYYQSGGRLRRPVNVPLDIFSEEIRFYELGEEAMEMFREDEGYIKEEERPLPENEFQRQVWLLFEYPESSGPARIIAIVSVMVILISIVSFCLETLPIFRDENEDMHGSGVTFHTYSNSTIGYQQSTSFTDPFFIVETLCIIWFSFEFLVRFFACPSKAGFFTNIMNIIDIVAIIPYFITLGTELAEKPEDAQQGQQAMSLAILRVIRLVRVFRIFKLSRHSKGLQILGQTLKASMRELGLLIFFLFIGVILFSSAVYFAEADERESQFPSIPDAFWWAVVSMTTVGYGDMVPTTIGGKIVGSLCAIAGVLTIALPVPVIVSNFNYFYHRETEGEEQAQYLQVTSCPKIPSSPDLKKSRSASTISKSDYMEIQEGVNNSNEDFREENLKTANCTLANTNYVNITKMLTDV
Put plainly: Patch clamp assay (QPatch), Kv1.2. It is filed as cell-based. The settings on record: for IC50: QPatch, CHO cells stably expressing human Kv1.2, read-out: Potency IC50, Kv1.2; for Selectivity Kv1.2/Kv1.3: ratio of IC50 Kv1.2/Kv1.3.

In data set [7] the target is T4, Kv1.1 (Homo sapiens, UniProt Q09470).
T4 construct: expressed in transfected cells
T4 sequence (Q09470 whole entry): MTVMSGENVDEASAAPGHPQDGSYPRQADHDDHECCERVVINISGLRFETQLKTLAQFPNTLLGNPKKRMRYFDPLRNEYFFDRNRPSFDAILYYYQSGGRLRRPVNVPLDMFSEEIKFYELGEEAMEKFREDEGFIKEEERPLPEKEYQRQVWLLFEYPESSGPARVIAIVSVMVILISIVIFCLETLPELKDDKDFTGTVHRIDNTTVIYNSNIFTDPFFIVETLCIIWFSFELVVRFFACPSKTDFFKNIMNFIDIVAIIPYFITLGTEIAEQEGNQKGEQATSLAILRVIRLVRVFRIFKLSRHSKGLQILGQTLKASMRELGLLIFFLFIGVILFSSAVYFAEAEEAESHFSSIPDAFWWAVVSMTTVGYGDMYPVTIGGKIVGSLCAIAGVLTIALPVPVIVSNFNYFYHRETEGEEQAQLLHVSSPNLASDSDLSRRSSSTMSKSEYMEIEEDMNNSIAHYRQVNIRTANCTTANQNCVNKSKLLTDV
The experiment in a line: Patch clamp assay (QPatch), Kv1.1. It is filed as cell-based. The conditions noted are these: for IC50: QPatch, CHO cells stably expressing human Kv1.1, read-out: Potency IC50, Kv1.1; for Selectivity Kv1.1/Kv1.3: ratio of IC50 Kv1.1/Kv1.3.
Protocol: as §1, §2, §3, §4, §5

For data set [8], the system named is human peripheral blood mononuclear cells (PBMCs). The experiment in a line: Example 3b: IL-2 release from anti-CD3 stimulated human PBMCs. The conditions noted are these: 5 donors, anti-CD3 1 μg/ml, geometric mean, at least 6 replicates. The class given is cell-based.
Protocol: Human peripheral blood mononuclear cells (PBMCs) were used to assess the effects of Kv1.3 inhibitor peptides on T-cell activation as determined by IL-2 release after stimulation with anti-CD3.
Human PBMCs were obtained from Precision for Medicine (Frederick, MD). Cells from 5 donors were used. Plate-bound anti-CD3 was used to stimulate bulk T cells in the PBMC preparations. Briefly, 96-well plates were coated with anti-CD3 antibody for app. 16 hours at 5° C., using 50 μl of a 1 μg/ml anti-CD3 solution diluted in PBS. Thereafter the plates were washed twice.
Peptides were subsequently diluted in medium (RPMI 1640 with Glutamax-I containing, 10% v/v Fetal Bovine Serum, 1% v/v penicillin-streptomycin Solution) and added in a volume of 50 μl. The peptides indicated in Table 4b were used at concentrations ranging from 0.3 pM to 1000 nM (half log dilutions, starting concentrations varying). Cyclosporin A (1 μg/ml) and Vm24 peptide (100 nM) were used as positive controls.
Finally, 50,000 PBMCs in the same medium were added to each well in a volume of 50 μl, giving a final volume of 100 μl per well. The plates were incubated for 20-24 hours in a 370C/5% CO2 incubator. After centrifugation of the plates, 25 μl supernatant was transferred to IL-2 detection plates (MSD Human IL-2 Tissue Culture Kit, cat #K151AHB-2) and IL-2 was measures as described by the manufacturer (Meso Scale Discovery, Rockville, Maryland, USA).
All values derive from at least 6 replicates.
For data set [9] the test system is unchanged. The experiment in a line: Example 3a: IL-2 release from anti-CD3 stimulated human PBMCs. It is filed as cell-based.
Protocol: Human peripheral blood mononuclear cells (PBMCs) were used to assess the effects of Kv1.3 inhibitor peptides on T-cell activation as determined by IL-2 (cytokine) release after stimulation with anti-CD3.
Human PBMCs were obtained from Precision for Medicine (Frederick, MD). Cells from 5 donors were used. Plate-bound anti-CD3 was used to stimulate bulk T cells in the PBMC preparations. Briefly, 96-well plates were coated with anti-CD3 antibody for 2 hrs at 37° C., using 50 μL of a 0.5 μg/mL anti-CD3 solution diluted in 1×PBS. Thereafter the plates were washed twice.
Cyclosporin A (1 ug/ml) and Vm24 peptide (100 nM) were used as positive controls. Finally, 1×10^5 PBMCs were added to each well in a volume of 100 μL, giving a final volume of 200 μL per well. The plates were incubated for 20-24 hours in a 37° C./5% CO2 incubator. After centrifugation of the plates, 25 μl supernatant was transferred to IL-2 detection plates (MSD Human IL-2 Tissue Culture Kit, cat #K151AHB-2) and IL-2 was measures as described by the manufacturer (Meso Scale Discovery, Rockville, Maryland, USA).
All values derive from at least 4 replicates.
Where [10] appears, read: read-out: anti-CD3 PBMC/IL-2 IC50.

Where two headings read alike, the source gives them in different places. Some results are limits rather than exact numbers.

T1 sequence (P22001 whole entry): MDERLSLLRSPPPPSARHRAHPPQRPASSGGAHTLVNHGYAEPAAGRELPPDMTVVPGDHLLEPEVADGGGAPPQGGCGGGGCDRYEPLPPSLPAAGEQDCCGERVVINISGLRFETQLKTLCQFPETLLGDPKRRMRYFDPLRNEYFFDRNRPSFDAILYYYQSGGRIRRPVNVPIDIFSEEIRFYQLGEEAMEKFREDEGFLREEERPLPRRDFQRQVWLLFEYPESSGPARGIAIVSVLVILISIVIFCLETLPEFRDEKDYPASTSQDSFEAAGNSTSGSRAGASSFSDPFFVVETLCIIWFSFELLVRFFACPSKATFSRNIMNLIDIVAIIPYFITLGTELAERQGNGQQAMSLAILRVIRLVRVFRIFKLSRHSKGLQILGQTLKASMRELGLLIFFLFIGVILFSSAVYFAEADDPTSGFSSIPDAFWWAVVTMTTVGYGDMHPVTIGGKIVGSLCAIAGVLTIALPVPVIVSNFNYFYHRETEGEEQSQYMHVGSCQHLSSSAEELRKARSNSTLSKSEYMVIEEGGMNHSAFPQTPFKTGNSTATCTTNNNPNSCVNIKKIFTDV
T2 sequence (P17658 whole entry): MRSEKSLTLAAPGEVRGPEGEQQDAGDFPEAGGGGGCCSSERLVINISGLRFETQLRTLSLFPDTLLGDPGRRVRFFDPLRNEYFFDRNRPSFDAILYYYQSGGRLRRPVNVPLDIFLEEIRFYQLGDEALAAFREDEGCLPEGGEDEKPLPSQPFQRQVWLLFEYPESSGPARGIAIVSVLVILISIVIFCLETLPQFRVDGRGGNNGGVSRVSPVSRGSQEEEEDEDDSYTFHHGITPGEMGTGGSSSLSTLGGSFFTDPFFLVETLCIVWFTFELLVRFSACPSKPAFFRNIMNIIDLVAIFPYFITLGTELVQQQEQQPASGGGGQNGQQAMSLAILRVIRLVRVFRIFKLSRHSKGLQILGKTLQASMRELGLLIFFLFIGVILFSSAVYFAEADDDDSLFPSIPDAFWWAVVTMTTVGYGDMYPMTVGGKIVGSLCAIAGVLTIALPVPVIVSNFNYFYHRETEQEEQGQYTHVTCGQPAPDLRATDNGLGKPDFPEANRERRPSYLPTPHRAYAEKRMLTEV

Turning to “H-NMDMRC(1)SASVEC(2)KQKC(3)LKAIGSIFGKC(1)MNKKC(2)KC(3)YPR-OH [Peptide 3]”, the IC50 is 0.27 nM in [1]; more than 3000 nM in data set [3]; 0.058 nM in data set [4] (read-out: Average IC50, IFN-g); 0.022 nM in data set [4] (read-out: Average IC50, IL-2); 0.044 nM in data set [4] (read-out: Average IC50, IL-17A); 1 nM in [5]. For the same substance, the IC50 is 409 nM in [6], more than 3000 nM in data set [7] and 0.06 nM in [8] (setting [10]). The same substance showed an AUCINF in data set [2] (plasma) of 0.0839 µM·h. In data set [2] (plasma), this substance returned a Cmax of 36.9 nM. Further, the T1/2 in data set [2] (plasma terminal elimination half-life) was 59.4 min. Besides, the “Selectivity Kv1.6/Kv1.3” value in data set [3] is more than 11300. The “Selectivity Kv1.2/Kv1.3” value in data set [6] is reported as 1540. The “Selectivity Kv1.1/Kv1.3” value in [7] is listed as more than 11300.

Take “H-P[Nle]D[Nle]RC(1)SASVEC(2)KQKC(3)LKAIGSIFGKC(1)[Nle]NKKC(2)KC(3)YPR-NH2 [Peptide 42]”: the IC50 in [1] is 0.18 nM; in data set [3] it was more than 3000 nM; in data set [4] (read-out: Average IC50, IFN-g) it was 0.046 nM; in data set [4] (read-out: Average IC50, IL-2), 0.03 nM; in data set [4] (read-out: Average IC50, IL-17A) it was 0.058 nM; in [5] it was 0.98 nM. Besides, the IC50 is 939 nM in data set [6], more than 3000 nM in data set [7] and 0.03 nM in data set [8] (setting [10]). In addition, in [3], the “Selectivity Kv1.6/Kv1.3” value is listed as more than 17100. Besides, the “Selectivity Kv1.2/Kv1.3” value in data set [6] worked out at 5362. In addition, the “Selectivity Kv1.1/Kv1.3” value in [7] is on record as more than 17100.

Turning to “H-QMDMRC(1)SASVEC(2)KQKC(3)LKAIGSIFGKC(1)MNKKC(2)KC(3)YPR-OH [Peptide 1]”, the IC50 in [1] is 0.38 nM; in [3] it was more than 3000 nM; in data set [5], 0.17 nM; in [6], 518 nM; in data set [7], more than 3000 nM; in data set [8] (setting [10]) it was 0.09 nM. In data set [3], the “Selectivity Kv1.6/Kv1.3” value was more than 7900. For the same substance, the “Selectivity Kv1.2/Kv1.3” value in data set [6] was found to be 1364. The “Selectivity Kv1.1/Kv1.3” value in [7] is on record as more than 7900.

On to “H-[phosphotyrosyl][8-Amino-3,6-dioxaoctanoyl]RSCIDTIPKSRCTAFQCKHSMKYRLSFCRKTCGTC-NH2 [ShK-186, reference compound]”, for which the IC50 in data set [1] came out at 0.095 nM; in [3], 0.45 nM; in [6] it was 43 nM; in data set [9] (human PBMCs, 5 donors, anti-CD3 0.5 μg/mL, geometric mean, at least 4 replicates, read-out: anti-CD3 PBMC/ IL-2 IC50), 0.07 nM; in [7] it was 0.31 nM; in data set [8] (listed as ShK186, read-out: anti-CD3 PBMC/IL-2 IC50), 0.05 nM. Besides, in [8] (setting [10]), the IC50 worked out at 0.04 nM. In addition, the “Selectivity Kv1.6/Kv1.3” value in data set [3] was 7.4. For the same substance, the “Selectivity Kv1.2/Kv1.3” value in data set [6] turned out to be 682. In addition, the “comparison of IC50 (IL-2 secretion) with ShK186 / Moka1” value in [9] (in words) is “significantly lower than Moka1”. Further, the “Selectivity Kv1.1/Kv1.3” value in [7] was determined as 4.9.

(Values after patent US20260325605A1, “INHIBITORS” (Zealand Pharma A/S, priority 2022, published 2026).)
